Legend:
[1] = system: 4.5X(−) Pseudomonas; test: Antibiotic resistance: colony growth on LB/agar plates with antibiotics; format: cell-based, Pseudomonas mendocina; settings: strain with disrupted 4.5X gene; agar plates, concentration ranging from 5 1μg/mL to 25 μg/mL
Protocol: (§1) The transformed Pseudomonas mendocina KR-1, carrying the disrupted putative efflux 4.5X gene, was grown on the agar plates in the presence of different antibiotics or high concentration of PHBA. The growth of the strain with the disrupted 4.5X gene was compared with that of wild type Pseudomonas mendocina strain KR-1.
The colonies were innoculated on the LB plates with different antibiotics separately. The antibiotics include Amp (50 μg/mL), Strep (10 μg/mL), Tec (10 μg/mL), Kam (25 μg/mL) and CM (5 μg/mL, 15 μg/mL and 25 μg/mL). The plates were kept at 30° C. for 48 hour. The growth of the colonies was scored based on the growth of wildtype strain KR-1 and the growth of these colonies on LB plates.

[2] = system: 4.5X(−); test: Sensitivity to PHBA: cell growth in liquid minimal medium by optical density; format: cell-based, Pseudomonas mendocina; settings: in the presence of 50 mM PHBA, same condition for both strains
Protocol: as §1
The cells were innoculated in the liquid medium consisting of minimal medium (in 1 L solution, sodium phosphate, monobasic, 1.85 g; potassium phosphate, dibasic, 5.84 g; ammonia sulphate, 1.5 g; yeast extract, 500 mg; 1x minerals, 2% glucose and 50 mM PHBA). The cultures were kept at 30° C. in a shaker incubator for 48 hours. The cell growth was monitored by optical density (O.D) measurements using a spectrophotometer.

Row | Structure (SMILES) | Growth on plates with chloramphenicol [1] | Growth of 4.5X(−) strain relative to wildtype strain [2]
1 | O=C(N[C@H](CO)[C@H](O)c1ccc([N+](=O)[O-])cc1)C(Cl)Cl [CM, choromphenecol] | unable to grow | –
2 | O=C(O)c1ccc(O)cc1 [PHBA, p-hydroxybenzoic acid] | – | four times slower
